In patent US7786042B2, “Fluridone as an anti-inflammatory agent” (Universita' Degli Studi Di Genova, priority 2005, dated 2010):
Entries after “also recorded” stand apart in the source; their conditions may differ. Like-named read-outs stand apart in the source and are kept apart here.

Experiments:
Format in all cases: cell-based
[1] = tested on: human granulocytes; experiment: NO release by granulocytes (nitrite, Griess)
Description: Granulocytes were resuspended at 5×10^6/ml in HBSS and 225 μl of the cell suspension were added to 50 μl of 0.2 mM cytochrome c and were incubated for 30 min at 37° C. in the absence (control) or in the presence of 250 nM or 20 μM ABA, the latter concentration without or with 1 mM EDTA, 20 mM nicotinamide or 0.1 mM 8-Br-cADPR. […] The results are expressed as the production relative to control cells, not stimulated with ABA, and are the mean ±SD from 5 experiments.

[2] = tested on: murine macrophages RAW 264.7; experiment: TNF-α production by murine macrophages RAW 264.7
Description: (§1) Murine macrophages of the continuous cell line RAW 264.7 were pre-incubated with 50 μM fluridone (flu) for 2 hours and then stimulated with 10 μM ABA or with 100 ng/ml of lipopolysaccharide (LPS) for 6 hours. The concentration of PGE2 (panel A) or of TNF-α (panel B) in the cell supernatant was measured as described under Materials and Methods and was compared with that from untreated (control) cells. The results are the mean ±SD from 4 experiments.
(§2) The method used to assay TNF-α is based on the high sensitivity of the murine fibroblast cell line L929 to the toxic effect of this cytokine. Briefly, fibroblasts were seeded (3×10^4/well) in 96-well plates and after 24 h the medium was substituted with the supernatant of the cell cultures where the TNF-α content was to be estimated. In parallel, known amounts of the cytokine were added to other wells, in order to obtain a standard curve of toxicity. After 48 hours, MTT (0.05 mg/ml) was added to each well and after 3 hours incubation at 37° C. (during this time viable cells reduce the dye producing formazan crystals), the medium was removed, DMSO (200 μl/well) was added to dissolve the formazan crystals and the absorbance was recorded at 570 nm with a spectrophotometric plate reader. The TNF-α concentration in the culture supernatants was calculated by comparison of the percentage of viable cells in the treated wells with those containing known amounts of TNF-α (standard curve). The PGE2 release in the medium by stimulated inflammatory cells was measured by an immunoenzymatic assay kit, commercially available (PGE2 EIA-kit, Cayman Chemicals, Ann Arbor, Mich., USA).

[3] = tested on: murine microglia cell line N9; experiment: TNF-α release by murine microglia N9
Description: Confluent cell cultures from the murine microglia cell line N9 were pre-incubated in the presence or in the absence of 50 μM fluridone for 4 hours and then stimulated with 10 μM ABA or with 100 ng/ml lipopolysaccharide for 24 hours. The concentration of PGE2 (panel A) and of TNF-α (panel B) in the cell supernatant was measured as described under Materials and Methods. The results are expressed as release relative to control cultures in the absence of added stimuli and are the mean ±SD from 4 experiments.
as §2

[4] = tested on: murine microglia cell line N9; experiment: NO release by murine microglia N9
Description: The method used to determine NO released from the cells into the medium exploits the spontaneous conversion of NO to nitrates and the subsequent enzymatic reduction of nitrates to nitrites by the enzyme nitrate reductase. […] Granulocytes (60×10^6/well) or murine microglia cells N9 (2×10^5/well) were incubated in 24-well plates for 60 min at 37° C. in the presence of ABA at different concentrations. The supernatants were then centrifuged and diluted with an equal volume of Griess reagent (0.1% naphthyl-ethylenediamine dihydrochloride in distilled water, 1% sulphanylamide in 5% concentrated H3PO4). Absorbance at 545 nm was estimated after 10 min and the nitrite concentration was calculated using a standard curve, generated in parallel with known amounts of NaNO2.

[5] = tested on: human monocytes; experiment: PGE2 production / COX-2 expression in human monocytes
Description: as §1, with “Human monocytes were” for “Murine macrophages of the continuous cell line RAW 264.7 were”, “A) and” for “A) or”, “and” for “and was”, “that of” for “that from”, “untreated cells (control).” for “untreated (control) cells.”
as §2

[6] = tested on: murine macrophages RAW 264.7; experiment: PGE2 production by murine macrophages RAW 264.7
Description: as §1, §2

[7] = tested on: human monocytes; experiment: TNF-α release by human monocytes (L929 toxicity assay)
Description: as §1, with “Human monocytes were” for “Murine macrophages of the continuous cell line RAW 264.7 were”, “A) and” for “A) or”, “and” for “and was”, “that of” for “that from”, “untreated cells (control).” for “untreated (control) cells.”
as §2

[8] = tested on: human lymphocytes; experiment: Lymphocyte proliferation ([3H]-thymidine incorporation); details: for inhibition at 50 µM: Homo sapiens, Lymphocyte, pre-incubation with fluridone 50 μM
Description: Low density mononuclear cells (lymphocytes and monocytes), isolated from peripheral blood, were incubated in triplicate (1.5×10^5/well) in 96-well plates in RPMI containing 20% autologous plasma in the absence (control) or in the presence of 50 μM fluridone for 18 hours. Phytohemagglutinin (PHA) (0.1 μg/ml) or phorbol myristate acetate (PMA) (0.1 μg/ml) were then added, with or without the simultaneous addition of ABA. After 72 hours, [^3H]-Thymidine (Amersham Biosciences, Uppsala, Sweden) was added to the cultures (0.2 μCi/well) and after 6 hours the incorporated radioactivity was evaluated by filtration of the cells on glass fiber filters (Whatman, Maidenstone, UK). Results are the mean ±SD from 3 experiments. In the absence of stimuli (PHA or PMA), no lymphocyte proliferation was observed.
Blood enriched in leukocytes (buffy coat), was provided by Galliera Hospital, Genova, Italy, upon informed consent of the volunteer donors. Lymphocytes, granulocytes and monocytes were isolated by density centrifugation through Ficoll-Paque (Amersham Biosciences, Uppsala, Sweden). Low-density mononuclear cells (including lymphocytes and monocytes) were collected at the plasma-Ficoll interphase and monocytes were further purified by adherence to plastic cell culture flasks. Granulocytes were isolated from high-density cells, sedimented under the Ficoll layer by hypotonic lysis of contaminating erythrocytes. All cell populations were then resuspended in RPMI 1640 medium (Sigma) containing penicillin (100 U/ml), streptomycin (100 μg/ml) and 20% autologous plasma. Culture conditions were as those described below for cell lines.

[9] = tested on: human monocytes; experiment: MCP-1 release from human monocytes
Description: Human monocytes were incubated for 6 hours with 10 μM ABA or with 100 ng/ml of lipopolysaccharide (LPS), in the presence or in the absence of fluridone (50 μM) and the MCP-1 concentration in the cell supernatant was immunoenzimatically measured, with a commercially available kit (R&D System, CA, USA). The results are the mean ±SD from 3 experiments.

[10] = exogenous ABA 10-20 μM added to fluridone-treated cultures

With `Cn1cc(-c2ccccc2)c(=O)c(-c2cccc(C(F)(F)F)c2)c1` [Fluridone, 1-methyl-3-phenyl-5-(α,α,α-trifluoro-m-tolyl)-4-pyridone] the “Effects of Fluridone: fMLP-, ATP-, β-amyloid-induced NO release” value [1] was “↓fMLP-, ATP-, β-”, the inhibition at 50 µM ([1]; Homo sapiens, read-out: inhibition of NO release) was roughly 80% and the “Effects of Fluridone: TNF-α release” value [2] was “↓TNF-α release”. The inhibition at 50 µM ([2]; Mus musculus, RAW264.7, fluridone 50 μM, read-out: inhibition of LPS-induced TNF-α production) was 90%, the “Effects of Fluridone: TNF-α release” value [3] was “↓TNF-α release” and the “Effects of Fluridone: NO release” value [4] was “↓NO release”. For the same compound, the “Effects of Fluridone: COX-PGE2” value [5] was “↓COX-PGE2”, the “LPS-stimulated PGE2 production” value ([5]; fluridone 50 μM) was “completely inhibits” and the “Effects of Fluridone: COX-PGE2” value [6] was “↓COX-PGE2”. The “LPS-stimulated PGE2 production” value ([6]; fluridone 50 μM) was “completely inhibits”, the “Effects of Fluridone: TNF-α release” value [7] was “↓TNF-α release” and the inhibition at 50 µM ([7]; Homo sapiens, Monocyte, fluridone 50 μM, read-out: inhibition of LPS-induced TNF-α production) was 90%. The “Effects of Fluridone: PMA-, LPS-, PHA-induced proliferation” value [8] was “↓PMA-, LPS-,”, the inhibition at 50 µM ([8]; read-out: inhibition of PHA-induced cell proliferation) was 50% and the inhibition at 50 µM ([8]; read-out: inhibition of PMA-induced cell proliferation) was 90%. The “Effects of Fluridone: MCP-1 release” value [9] was “↓MCP-1 release” and the “release of MCP-1 by LPS-stimulated monocytes” value ([9]; fluridone 50 μM) was “almost completely inhibits”.
In the case of `CC1=CC(=O)CC(C)(C)[C@@]1(O)/C=C/C(C)=C\C(=O)O` (racemic) [ABA, (±)-cis, trans ABA], the “production/release of nitric oxide (NO)” value ([1]; ABA 0.2-20 μM) is reported as “stimulation; also recorded: ↑NO release”, the “release of TNF-α” value ([2]; ABA 0.1-10 μM) is reported as “increased release; also recorded: ↑TNF-α release” and the “TNF-α release compromised by fluridone” value [2, 10] is reported as “partly restores”. For the same compound, the “release of TNF-α” value ([3]; ABA 0.2-20 μM) was “increase; also recorded: ↑TNF-α release”, the “TNF-α release compromised by fluridone” value [3, 10] was “partly restores” and the “release of NO” value ([4]; ABA 0.2-20 μM) was “increase; also recorded: ↑NO release”. The “NO release compromised by fluridone” value [4, 10] was “partly restores”, the “expression of cyclooxygenase 2 (COX-2), Western blot” value ([5]; ABA 0.1-10 μM) was “increased expression” and the “production of prostaglandin E2 (PGE2)” value ([5]; ABA 0.1-10 μM) was “increased production”. The “Effects of ABA: COX-PGE2” value ([5]; Added ABA 5-50 μM) was “↑COX-PGE2”, the “release of PGE2 (COX-PGE2)” value ([6]; ABA 0.1-10 μM) was “increased release; also recorded: ↑COX-PGE2” and the “release of TNF-α” value ([7]; ABA 0.1-10 μM) was “significant increase”. The “Effects of ABA: TNF-α release” value ([7]; Added ABA 5-50 μM) was “↑TNF-α release”, the “TNF-α release compromised by fluridone” value [7, 10] was “partly restores” and the stimulation of proliferation ([8]; ABA 50 to 500 μM, in the absence of other stimuli (PMA, PHA)) was 30%. For the same compound, the “Effects of ABA: proliferation” value ([8]; Added ABA 50-500 μM) was “↑proliferation”, the “restoration of the proliferative response” value ([8]; excess exogenous ABA 500 μM together with fluridone) was “approximately 40%” and the “increase of release of MCP-1” value ([9]; ABA 0.1-10 μM) was “approx. two-fold”. The “Effects of ABA: MCP-1 release” value ([9]; Added ABA 5-50 μM) was “↑MCP-1 release”.
